Reference: patent US20260216294A1, “BETA 2-ADRENERGIC RECEPTOR AGONISTS FOR TREATMENT OR PREVENTION OF MUSCLE WASTING” (ATROGI AB, priority 2023, published 2026)

Experiments:
L6-myotubes [1] = assay: Measurement of intracellular cAMP levels in differentiated L6-myotubes (Biological Example 3); assay type: cell-based; conditions: 0.25 h, intracellular cAMP in differentiated L6-myotubes; compound at 10 μM, activity relative to isoproterenol at 10 μM
How it was run: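 Intracellular cAMP quantified by AlphaScreen after ethanol extraction and lysis of L6 myotubes. Cells were serum-starved overnight, then exposed for 15 min to compound (final 1×10^−5 M) or isoprenaline in IBMX-containing (1 mM) HBSS buffer, pH 7.4.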

L6-myotubes [2] = assay: Glucose uptake in differentiated L6-myotubes (Biological Example 2); assay type: cell-based; conditions: glucose uptake in differentiated L6-myotubes; compound at 10 μM, activity relative to isoproterenol at 10 μM; read-out: Biological example 2 (GU)
How it was run: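 Uptake was quantified as radioactivity in 0.2 M NaOH lysates after a 10 min pulse of 50 nM ^3H-2-deoxyglucose. The pulse followed two agonist exposures at 1×10^−5 M final (isoprenaline or test compound): 1 h 40 min, then 20 min in glucose-free medium after washing. L6 myotubes had been starved overnight in medium with 0.5% fatty-acid-free BSA.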

With `CS(=O)(=O)N[C@H]1CC[C@@H](CNC[C@H](O)c2cncc(F)c2)CC1` [Compound 314, (R)-1-(5-fluoro-3-pyridyl)-2-({[(1s,4S)-4-(mesylamino)cyclohexyl]methyl}amino)-1-ethanol] the Emax at 10 µM (L6-myotubes [1]) was < 25% and the Emax at 10 µM (L6-myotubes [2]) was 50 to 75%.
With `O=C(N[C@H]1CC[C@H](CNC[C@H](O)c2cccc(F)c2)CC1)c1ccccc1` [Compound 315, N-[(1R,4r)-4-{[(R)-2-(m-fluorophenyl)-2-hydroxyethylamino]methyl}cyclohexyl] benzamide] the Emax at 10 µM (L6-myotubes [1]) was < 25% and the Emax at 10 µM (L6-myotubes [2]) was > 75%.
With `O=C(N[C@H]1CC[C@@H](CNC[C@H](O)c2cccc(F)c2)CC1)c1ccccc1` [Compound 316] the Emax at 10 µM (L6-myotubes [1]) was < 25% and the Emax at 10 µM (L6-myotubes [2]) was 50 to 75%.
With `O=C(N[C@H]1CC[C@H](CNC[C@H](O)c2cncc(F)c2)CC1)c1ccccc1` [Compound 317] the Emax at 10 µM (L6-myotubes [1]) was < 25% and the Emax at 10 µM (L6-myotubes [2]) was 50 to 75%.
In the case of `O=C(N[C@H]1CC[C@@H](CNC[C@H](O)c2cncc(F)c2)CC1)c1ccccc1` [Compound 318], the Emax at 10 µM (L6-myotubes [1]) was < 25% and the Emax at 10 µM (L6-myotubes [2]) was 50 to 75%.
In the case of `CC(C)(CC[C@H]1CC[C@H](O)CC1)NC[C@H](O)c1ccccc1F` [Compound 319, (R)-2-{1,1-dimethyl-3-[(1r,4S)-4-hydroxycyclohexyl]propylamino}-1-(o-fluorophenyl)-1-ethanol], the Emax at 10 µM (L6-myotubes [1]) was < 25% and the Emax at 10 µM (L6-myotubes [2]) was > 75%.
With `CC(C)(CC[C@H]1CC[C@@H](O)CC1)NC[C@H](O)c1ccccc1F` [Compound 320, (R)-2-{1,1-dimethyl-3-[(1s,4R)-4-hydroxycyclohexyl]propylamino}-1-(o-fluorophenyl)-1-ethanol] the Emax at 10 µM (L6-myotubes [1]) was 25 to 50% and the Emax at 10 µM (L6-myotubes [2]) was > 75%.
`COC(=O)[C@H]1CC[C@@H](C(C)(C)NC[C@H](O)c2cncc(F)c2)CC1` [Compound 321, (1S,4s)-8-[(R)-2-(5-fluoro-3-pyridyl)-2-hydroxyethylamino]-7-methoxy-p-menthan-7-one] was tested, and the Emax at 10 µM (L6-myotubes [1]) was < 25% and the Emax at 10 µM (L6-myotubes [2]) was 50 to 75%.
`COC(=O)[C@H]1CC[C@@H](CC(C)(C)NC[C@H](O)c2cncc(F)c2)CC1` [Compound 322, methyl (1S,4s)-4-{2-[(R)-2-(5-fluoro-3-pyridyl)-2-hydroxyethylamino]-2-methylpropyl} cyclohexanecarboxylate] was tested, and the Emax at 10 µM (L6-myotubes [1]) was < 25% and the Emax at 10 µM (L6-myotubes [2]) was > 75%.
`CC(C)(NC[C@H](O)c1cncc(F)c1)[C@H]1CC[C@@H](C(=O)O)CC1` [Compound 323, (1S,4s)-8-[(R)-2-(5-fluoro-3-pyridyl)-2-hydroxyethylamino]-7-hydroxy-p-menthan-7-one] was tested, and the Emax at 10 µM (L6-myotubes [1]) was 50 to 75% and the Emax at 10 µM (L6-myotubes [2]) was 25 to 50%.
With `CC(C)(C[C@H]1CC[C@@H](C(=O)O)CC1)NC[C@H](O)c1cncc(F)c1` [Compound 324, (1S,4s)-4-{2-[(R)-2-(5-fluoro-3-pyridyl)-2-hydroxyethylamino]-2-methylpropyl} cyclohexanecarboxylic acid] the Emax at 10 µM (L6-myotubes [1]) was < 25% and the Emax at 10 µM (L6-myotubes [2]) was 25 to 50%.
For `CO[C@H]1CC[C@H](C[C@@H]2CC[C@H]([C@@H](O)c3cccc(F)c3)N2)CC1` [Compound 325, (S)-[(2R,5S)-5-{[(1r,4S)-4-methoxycyclohexyl]methyl}-2-pyrrolidinyl](m-fluorophenyl)methanol], the Emax at 10 µM (L6-myotubes [1]) was < 25% and the Emax at 10 µM (L6-myotubes [2]) was > 75%.
In the case of `CO[C@H]1CC[C@H](C[C@@H]2CC[C@H]([C@H](O)c3cccc(F)c3)N2)CC1` [Compound 326, (R)-[(2R,5S)-5-{[(1r,4S)-4-methoxycyclohexyl]methyl}-2-pyrrolidinyl] (m-fluorophenyl)methanol], the Emax at 10 µM (L6-myotubes [1]) was < 25% and the Emax at 10 µM (L6-myotubes [2]) was > 75%.
For `COC(=O)[C@H]1CC[C@@H](CC(C)(C)NC[C@H](O)c2cccc(F)c2)CC1` [Compound 327, methyl (1S,4s)-4-{2-[(R)-2-(m-fluorophenyl)-2-hydroxyethylamino]-2-methylpropyl} cyclohexanecarboxylate], the Emax at 10 µM (L6-myotubes [1]) was < 25% and the Emax at 10 µM (L6-myotubes [2]) was > 75%.
`COC(=O)[C@H]1CC[C@@H](C(C)(C)NC[C@H](O)c2cccc(F)c2)CC1` [Compound 328, (1S,4s)-8-[(R)-2-(m-fluorophenyl)-2-hydroxyethylamino]-7-methoxy-p-menthan-7-one] was tested, and the Emax at 10 µM (L6-myotubes [1]) was < 25% and the Emax at 10 µM (L6-myotubes [2]) was > 75%.
With `COCC12CCC([C@@H](O)c3cccc(F)c3)(CC1)N2` [Compound 329, (S)-(m-fluorophenyl){4-(methoxymethyl)-7-azabicyclo[[2.2.1]]hept-1-yl}methanol] the Emax at 10 µM (L6-myotubes [1]) was < 25% and the Emax at 10 µM (L6-myotubes [2]) was 25 to 50%.
For `COCC12CCC([C@H](O)c3cccc(F)c3)(CC1)N2` [Compound 330, (R)-(m-fluorophenyl){4-(methoxymethyl)-7-azabicyclo[[2.2.1]]hept-1-yl}methanol], the Emax at 10 µM (L6-myotubes [1]) was < 25% and the Emax at 10 µM (L6-myotubes [2]) was > 75%.
With `CC(C)(C[C@H]1CC[C@@H](C(=O)O)CC1)NC[C@H](O)c1cccc(F)c1` [Compound 331, (1S,4s)-4-{2-[(R)-2-(m-fluorophenyl)-2-hydroxyethylamino]-2-methylpropyl} cyclohexanecarboxylic acid] the Emax at 10 µM (L6-myotubes [1]) was < 25% and the Emax at 10 µM (L6-myotubes [2]) was 25 to 50%.
With `CO[C@H]1CC[C@H](C[C@@H]2CC[C@H]([C@@H](O)c3cncc(F)c3)N2)CC1` [Compound 332] the Emax at 10 µM (L6-myotubes [1]) was < 25% and the Emax at 10 µM (L6-myotubes [2]) was 25 to 50%.
`CO[C@H]1CC[C@H](C[C@@H]2CC[C@H]([C@H](O)c3cncc(F)c3)N2)CC1` [Compound 333] was tested, and the Emax at 10 µM (L6-myotubes [1]) was < 25% and the Emax at 10 µM (L6-myotubes [2]) was 25 to 50%.
With `CO[C@H]1CC[C@H](C[C@H]2CC[C@H]([C@@H](O)c3cccc(F)c3)N2)CC1` [Compound 334, (S)-[(2R,5R)-5-{[(1r,4R)-4-methoxycyclohexyl]methyl}-2-pyrrolidinyl] (m-fluorophenyl)methanol] the Emax at 10 µM (L6-myotubes [1]) was < 25% and the Emax at 10 µM (L6-myotubes [2]) was 25 to 50%.
`CO[C@H]1CC[C@H](C[C@H]2CC[C@H]([C@H](O)c3cccc(F)c3)N2)CC1` [Compound 335] was tested, and the Emax at 10 µM (L6-myotubes [1]) was < 25% and the Emax at 10 µM (L6-myotubes [2]) was > 75%.
With `CO[C@H]1CC[C@H](C[C@@H]2CC[C@H]([C@@H](O)c3ccccc3F)N2)CC1` [Compound 336, (S)-[(2R,5S)-5-{[(1r,4S)-4-methoxycyclohexyl]methyl}-2-pyrrolidinyl] (o-fluorophenyl)methanol] the Emax at 10 µM (L6-myotubes [1]) was < 25% and the Emax at 10 µM (L6-myotubes [2]) was 25 to 50%.
With `CO[C@H]1CC[C@H](C[C@@H]2CC[C@H]([C@H](O)c3ccccc3F)N2)CC1` [Compound 337, (R)-[(2R,5S)-5-{[(1r,4S)-4-methoxycyclohexyl]methyl}-2-pyrrolidinyl] (o-fluorophenyl)methanol] the Emax at 10 µM (L6-myotubes [1]) was < 25% and the Emax at 10 µM (L6-myotubes [2]) was > 75%.
`CO[C@H]1CC[C@H](C[C@H]2CC[C@H]([C@@H](O)c3ccccc3F)N2)CC1` [Compound 338, (S)-[(2R,5R)-5-{[(1r,4R)-4-methoxycyclohexyl]methyl}-2-pyrrolidinyl](o-fluorophenyl)methanol] was tested, and the Emax at 10 µM (L6-myotubes [1]) was < 25% and the Emax at 10 µM (L6-myotubes [2]) was 50 to 75%.
`CO[C@H]1CC[C@H](C[C@H]2CC[C@H]([C@H](O)c3ccccc3F)N2)CC1` [Compound 339, (R)-[(2R,5R)-5-{[(1r,4R)-4-methoxycyclohexyl]methyl}-2-pyrrolidinyl](o-fluorophenyl)methanol] was tested, and the Emax at 10 µM (L6-myotubes [1]) was < 25% and the Emax at 10 µM (L6-myotubes [2]) was > 75%.
With `CO[C@H]1CC[C@H](C[C@H]2CC[C@H]([C@@H](O)c3cncc(F)c3)N2)CC1` [Compound 340, (S)-[(2R,5R)-5-{[(1r,4R)-4-methoxycyclohexyl]methyl}-2-pyrrolidinyl](5-fluoro-3-pyridyl)methanol] the Emax at 10 µM (L6-myotubes [1]) was < 25% and the Emax at 10 µM (L6-myotubes [2]) was 25 to 50%.
